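Growth conditions: 96-well plates. Treatment: test compound, 48 hours, 5 concentrations. Analysis: linear interpolation between bracketing concentrations; unreached endpoints set to highest concentration. GI50: concentration for 50% inhibition of growth. TGI: concentration producing complete growth inhibition.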
Tests used:
Assay in all cases: inhibition of tumour cell growth, NCI panel, 48 h
T-47D breast = test system: T-47D breast
CCRF-CEM leukemia = test system: CCRF-CEM leukemia
UO-31 renal = test system: UO-31 renal
SR leukemia = test system: SR leukemia
MDA-MB-231 breast = test system: MDA-MB-231 breast
PC-3 prostate = test system: PC-3 prostate
OVCAR-5 ovarian = test system: OVCAR-5 ovarian
RPMI-8226 leukemia = test system: RPMI-8226 leukemia
SK-MEL-5 melanoma = test system: SK-MEL-5 melanoma
SK-MEL-28 melanoma = test system: SK-MEL-28 melanoma
IGROV1 ovarian = test system: IGROV1 ovarian
SNB-75 CNS = test system: SNB-75 CNS
SF-539 CNS = test system: SF-539 CNS
EKVX NSCLC = test system: EKVX NSCLC
OVCAR-3 ovarian = test system: OVCAR-3 ovarian
NCI/ADR-RES ovarian = test system: NCI/ADR-RES ovarian
SK-OV-3 ovarian = test system: SK-OV-3 ovarian
K-562 leukemia = test system: K-562 leukemia
TK-10 renal = test system: TK-10 renal
ACHN renal = test system: ACHN renal
NCI-H226 lung = test system: NCI-H226 lung
UACC-257 melanoma = test system: UACC-257 melanoma
OVCAR-4 ovarian = test system: OVCAR-4 ovarian
SW-620 colon = test system: SW-620 colon
BT-549 breast = test system: BT-549 breast
A549 NSCLC = test system: A549 NSCLC
MDA-MB-435 = test system: MDA-MB-435
DU-145 prostate = test system: DU-145 prostate
HOP-62 NSCLC = test system: HOP-62 NSCLC
CAKI-1 renal = test system: CAKI-1 renal
HT29 colon = test system: HT29 colon
MOLT-4 leukemia = test system: MOLT-4 leukemia
OVCAR-8 ovarian = test system: OVCAR-8 ovarian
A498 renal = test system: A498 renal
SN12C renal = test system: SN12C renal
NCI-H23 lung = test system: NCI-H23 lung
HCT-15 colon = test system: HCT-15 colon
HL-60(TB) leukemia = test system: HL-60(TB) leukemia

For `COc1cc2nc(Cl)nc(Nc3cccc(C4=Nc5c(N)nc(N)nc5NC(c5ccc(Cl)cc5)C4)c3)c2cc1OC` (stereo unspecified), the GI50 (T-47D breast) was 2.02 µM, the TGI (T-47D breast) was 4.61 µM and the GI50 (CCRF-CEM leukemia) was 1.59 µM. For the same compound, the TGI (CCRF-CEM leukemia) was 5.3 µM, the GI50 (UO-31 renal) was 2.48 µM and the TGI (UO-31 renal) was 8.89 µM. It also gave a GI50 (SR leukemia) of 1.91 µM, a TGI (SR leukemia) of 5.33 µM and a GI50 (MDA-MB-231 breast) of 1.63 µM. The TGI (MDA-MB-231 breast) was 3.29 µM, the GI50 (PC-3 prostate) was 3.97 µM and the TGI (PC-3 prostate) was 37.9 µM. The GI50 (OVCAR-5 ovarian) was 2.12 µM, the TGI (OVCAR-5 ovarian) was 5.25 µM and the GI50 (RPMI-8226 leukemia) was 1.97 µM. The TGI (RPMI-8226 leukemia) was 4.84 µM, the GI50 (SK-MEL-5 melanoma) was 1.68 µM and the TGI (SK-MEL-5 melanoma) was 3.08 µM. For the same compound, the GI50 (SK-MEL-28 melanoma) was 1.66 µM, the TGI (SK-MEL-28 melanoma) was 3.1 µM and the GI50 (IGROV1 ovarian) was 2.9 µM. The TGI (IGROV1 ovarian) was 10.9 µM, the GI50 (SNB-75 CNS) was 2.39 µM and the TGI (SNB-75 CNS) was 14.3 µM. For the same compound, the GI50 (SF-539 CNS) was 1.72 µM, the TGI (SF-539 CNS) was 3.13 µM and the GI50 (EKVX NSCLC) was 2.44 µM. The TGI (EKVX NSCLC) was 9.17 µM, the GI50 (OVCAR-3 ovarian) was 2.04 µM and the TGI (OVCAR-3 ovarian) was 4.2 µM. It also gave a GI50 (NCI/ADR-RES ovarian) of 4.16 µM, a TGI (NCI/ADR-RES ovarian) of 92 µM and a GI50 (SK-OV-3 ovarian) of 21.8 µM. It also gave a TGI (SK-OV-3 ovarian) of 48 µM, a GI50 (K-562 leukemia) of 1.91 µM and a TGI (K-562 leukemia) of 4.16 µM. It also gave a GI50 (TK-10 renal) of 2.62 µM, a TGI (TK-10 renal) of 6.87 µM and a GI50 (ACHN renal) of 2.15 µM. For the same compound, the TGI (ACHN renal) was 4.87 µM, the GI50 (NCI-H226 lung) was 14.9 µM and the TGI (NCI-H226 lung) was 50.1 µM. It also gave a GI50 (UACC-257 melanoma) of 2.43 µM, a TGI (UACC-257 melanoma) of 6.22 µM and a GI50 (OVCAR-4 ovarian) of 2 µM. It also gave a TGI (OVCAR-4 ovarian) of 4.81 µM, a GI50 (SW-620 colon) of 1.85 µM and a TGI (SW-620 colon) of 3.79 µM. It also gave a GI50 (BT-549 breast) of 7.93 µM, a TGI (BT-549 breast) of 38 µM and a GI50 (A549 NSCLC) of 3.14 µM. For the same compound, the TGI (A549 NSCLC) was 16.1 µM, the GI50 (MDA-MB-435) was 1.64 µM and the TGI (MDA-MB-435) was 3.07 µM. It also gave a GI50 (DU-145 prostate) of 2.07 µM, a TGI (DU-145 prostate) of 4.84 µM and a GI50 (HOP-62 NSCLC) of 5.24 µM. For the same compound, the TGI (HOP-62 NSCLC) was 32.5 µM, the GI50 (CAKI-1 renal) was 1.99 µM and the TGI (CAKI-1 renal) was 4.49 µM. It also gave a GI50 (HT29 colon) of 2.05 µM, a TGI (HT29 colon) of 4.53 µM and a GI50 (MOLT-4 leukemia) of 1.75 µM. For the same compound, the TGI (MOLT-4 leukemia) was 5.1 µM, the GI50 (OVCAR-8 ovarian) was 2.35 µM and the TGI (OVCAR-8 ovarian) was 5.99 µM. It also gave a GI50 (A498 renal) of 10.5 µM, a TGI (A498 renal) of 26.9 µM and a GI50 (SN12C renal) of 2.68 µM. The TGI (SN12C renal) was 8.1 µM, the GI50 (NCI-H23 lung) was 2.69 µM and the TGI (NCI-H23 lung) was 8.4 µM. The GI50 (HCT-15 colon) was 2.07 µM, the TGI (HCT-15 colon) was 4.8 µM and the GI50 (HL-60(TB) leukemia) was 1.79 µM. It also gave a TGI (HL-60(TB) leukemia) of 4.18 µM.
